In series [1] the target is T1, NR2B-subtype NMDA receptors (Rattus norvegicus, UniProt P35439+Q00960).
T1 construct: from tissue; host or cells: rat forebrain membrane homogenate (Sprague Dawley, Harlan)
Put plainly: Radioligand binding assay (3H Ro 25-6981 competition). To be noted: rat forebrain membranes, 3H Ro 25-6981 (4 nM). As for the experimental part: Radioligand binding assay. Binding experiments to determine binding to NR2B-subtype NMDA receptors were performed on forebrains of 8-10 weeks old male Sprague Dawley rats (Harlan, Netherlands) using ^3H Ro 25-6981 (Mutel V; Buchy D; Klingelschmidt A; Messer J; Bleuel Z; Kemp J A; Richards J G. Journal of Neurochemistry, 1998, 70(5):2147-2155. Rats were decapitated without anesthesia using a Guillotine (approved by animal ethics committee) and the harvested brains were snap-frozen and stored at −80° C. for 3-6 months for membrane preparation.
For membrane preparation, rat forebrains were thawed on ice for 20 minutes in homogenization buffer composed of 50 mM KH2PO4 (pH adjusted to 7.4 with KOH), 1 mM EDTA, 0.005% Triton X 100 and protease inhibitor cocktail (Sigma Aldrich). Thawed brains were homogenized using a Dounce homogenizer and centrifuged at 48000×g for 20 min. The pellet was resuspended in cold buffer and homogenized again using a Dounce homogenizer. Subsequently, the homogenate was aliquoted, snap-frozen and stored at −80° C. for not more than 3-4 months.
To perform the competition binding assay, thawed membrane homogenate was added to each well of a 96-well plate (20 μg/well). […] The filter plates were dried at 50° C. for 20 mins, incubated with microscint 20 for 10 minutes and finally, the counts were read on TopCount (Perkin Elmer).

Series [2] concerns mice. Nature of the series: Mouse Forced swim test (mFST). The format is in vivo. To be noted: 3 mg/Kg i.v., 15 min before swim session, 6 min test. How it is done: Mouse Forced swim test (mFST). Forced Swim Test (FST) is an animal model used to assess antidepressant compounds in preclinical studies. The FST was performed similar to the method of Porsolt et al. with modifications (Porsolt R D, Bertin A, Jalfre M. Behavioral despair in mice: a primary screening test for antidepressants. Arch Int Pharmacodyn Thér 1977; 229:327-36). In this paradigm, mice are forced to swim in an inescapable cylinder filled with water. Under these conditions, mice will initially try to escape and eventually develop immobility behavior; this behavior is interpreted as a passive stress-coping strategy or depression-like behavior. […] The duration of immobility was evaluated during the total 6 min of the test and expressed as duration (sec) of immobility. […] All testing sessions were recorded with a video camera (Sony Handicam, Model: DCR-HC38E; PAL) and scoring was done using the Forced Swim Scan, Version 2.0 software (Clever Systems Inc., Reston, Va., USA; see Hayashi E, Shimamura M, Kuratani K, Kinoshita M, Hara H. Automated experimental system capturing three behavioral components during murine forced swim test. Life Sci. 2011 February 28; 88 (9-10): 411-7 and Yuan P, Tragon T, Xia M, Leclair C A, Skoumbourdis A P, Zheng W, Thomas C J, Huang R, Austin C P, Chen G, Guitart X. Phosphodiesterase 4 inhibitors enhance sexual pleasure-seeking activity in rodents. […]

Series [3] can be described thus: Drug levels in blood plasma and homogenized brain tissue by mass spectroscopy. It counts as in vivo, mouse. The conditions noted are these: intravenous; for concentration at 15 min: CD-1, mouse, 3 mg/Kg i.v. dose, ex vivo occupancy study, mice; for concentration at 21 min: 3 mg/Kg i.v., end of mouse forced swim test. As for the experimental part:
(§1) [formula] […] Drug levels were determined by mass spectroscopy in the usual manner. Drug levels in the blood plasma were 1018 nM in at this dose, and drug levels in the homogonized brain tissue were 1342 nM.
Mouse Forced swim test (mFST). Forced Swim Test (FST) is an animal model used to assess antidepressant compounds in preclinical studies. The FST was performed similar to the method of Porsolt et al. with modifications (Porsolt R D, Bertin A, Jalfre M. Behavioral despair in mice: a primary screening test for antidepressants. Arch Int Pharmacodyn Thér 1977; 229:327-36). In this paradigm, mice are forced to swim in an inescapable cylinder filled with water. Under these conditions, mice will initially try to escape and eventually develop immobility behavior; this behavior is interpreted as a passive stress-coping strategy or depression-like behavior. Swim tanks were positioned inside a box made of plastic. Each tank was separated from each other by opaque plastic sheets to the height of cylinders. Three mice were subjected to test at a time. Swim sessions were conducted for 6 min by placing mice in individual glass cylinders (46 cm height×20 cm diameter) containing water (20-cm deep, maintained at 24-25° C.). […] The mouse was judged to be immobile whenever it remained floating passively without struggling in the water and only making those movements necessary to keep its nose/head above the water and to keep it afloat. The duration of immobility was evaluated during the total 6 min of the test and expressed as duration (sec) of immobility. Each mouse was tested only once. At the end of each session, mice were dried with a dry cloth and returned to their home cage placed on a thermal blanket to prevent hypothermia. Water was replaced after each trial. All testing sessions were recorded with a video camera (Sony Handicam, Model: DCR-HC38E; PAL) and scoring was done using the Forced Swim Scan, Version 2.0 software (Clever Systems Inc., Reston, Va., USA; see Hayashi E, Shimamura M, Kuratani K, Kinoshita M, Hara H. Automated experimental system capturing three behavioral components during murine forced swim test. Life Sci. 2011 February 28; 88 (9-10): 411-7 and Yuan P, Tragon T, Xia M, Leclair C A, Skoumbourdis A P, Zheng W, Thomas C J, Huang R, Austin C P, Chen G, Guitart X. Phosphodiesterase 4 inhibitors enhance sexual pleasure-seeking activity in rodents. Pharmacol Biochem Behav. 2011; 98(3):349-55). For NCE testing: Test compound was administered in mice 15 min before swim session by i.v. route and immobility time was recorded for next 6 min. […] The NR2B receptor occupancy was determined as reported above and was determined to be 67%.

Series [4] has as its target T2, hERG channels (Homo sapiens, UniProt Q12809).
T2 construct: expressed in transfected cells
Nature of the series: hERG electrophysiology assay (patch clamp). To be noted: HEK 293 cells stably expressing hERG channels, tail current. The format is cell-based. As for the experimental part:
hERG electrophysiology assay. The experimental compounds were assessed for hERG activity on HEK 293 cells stably expressing hERG channels using patch clamp technique. Coverslips plated with hERG expressing cells were placed in the experimental chamber and were perfused with a solution composed of (in mM): 140 NaCl, 4 KCl, 1.8 CaCl2, 1 MgCl2, 10 Glucose, 10 HEPES (pH 7.4, NaOH) at room temperature. Borosilicate patch pipettes had tip resistances of 2-4 Mohms when filled with an internal solution containing: 130 KCl, 1 MgCl2, 1 CaCl2, 10 EGTA, 10 HEPES, 5 ATP-K2 (pH 7.2, KOH). The cells were clamped at −80 mV in whole cell configuration using an Axopatch 200B (Axon instruments, Union City, Calif.) patch clamp amplifier controlled by pClamp (Axon instruments) software. […] First, tail currents were recorded in presence of extracellular solution alone (control) and subsequently, in extracellular solution containing increasing compound concentrations. […] The percentage inhibition at each concentration was calculated as reduction in peak tail current with respect to the peak tail current recorded in the presence of control solution. […]

Series [5] concerns the target T3, NR2B-subtype receptors (Mus musculus, UniProt P35438+Q01097).
T3 construct: brain-resident NR2B-subtype receptors; from tissue; host or cells: forebrain membrane homogenates of dosed CD-1 mice
Nature of the series: Ex vivo occupancy assay. It counts as in vivo. To be noted: for receptor occupancy at 3 mg/kg: mouse, iv. As for the experimental part:
Ex vivo occupancy assay. […] 7-9 weeks old male CD-1 mice were dosed intravenously in a vehicle consisting of 10% dimethylacetamide, 40% PEG-400, 30% hydroxypropyl betacyclodextrin, and 30% water with experimental compounds and the forebrains were harvested 15 minutes post-dosing by decapitation. The brain samples were immediately snap-frozen and stored at −80° C. On the following day, the dosed brain samples were thawed on ice for 15-20 minutes followed by homogenization using Polytron for 10 seconds in cold homogenization buffer composed of 50 mM KH2PO4 (pH adjusted to 7.4 with KOH), 1 mM EDTA, 0.005% Triton X 100 and protease inhibitor cocktail (Sigma Aldrich). The crude homogenates were further homogenized using a Dounce homogenizer and the homogenized membrane aliquots from all animals were flash-frozen and stored at −80° C. until further use. The whole homogenization process was performed on ice.
For determining occupancy, the membrane homogenates were first thawed on ice and then needle-homogenized using a 25 gauge needle. The homogenized membrane (6.4 mg/ml) was added to a 96-well plate followed by addition of ^3H Ro 25-6981 (6 nM). The reaction mixture was incubated for 5 minutes on a shaker at 4° C. and then harvested onto GF/B filter plates (treated with 0.5% PEI for 1 hr at room temperature). The filter plates were dried at 50° C. for 20 mins, incubated with microscint 20 for 10 minutes and read on TopCount (Perkin Elmer). Each dose or compound group consisted of 4-5 animals. The control group of animals was dosed with vehicle alone. Membrane from each animal was added in triplicates to the assay plate. Non-specific binding was determined using 10 μM Ro 25-6981 added to the wells containing membrane homogenates from vehicle-dosed animals. Specific counts/minute was converted to % occupancy at each dose of a compound for each animal using the following equation:
as §1

pIC50, pKi: −log10 of the molar value. Like-named read-outs stand apart in the source and are kept apart here.

This is an account of results in US10961229B2, “Selective NR2B antagonists” (Bristol-Myers Squibb Company, priority 2015, dated 2021).

The term pKi denotes the negative decadic logarithm of the Ki, by convention in mol/L. The low end stands for a high Ki, the high end for a low Ki. One may read the pIC50 as the negative decadic logarithm of the IC50, by convention in mol/L. Higher therefore signals a low IC50.

T3 sequence (Q01097 27-1482, other chains not shown): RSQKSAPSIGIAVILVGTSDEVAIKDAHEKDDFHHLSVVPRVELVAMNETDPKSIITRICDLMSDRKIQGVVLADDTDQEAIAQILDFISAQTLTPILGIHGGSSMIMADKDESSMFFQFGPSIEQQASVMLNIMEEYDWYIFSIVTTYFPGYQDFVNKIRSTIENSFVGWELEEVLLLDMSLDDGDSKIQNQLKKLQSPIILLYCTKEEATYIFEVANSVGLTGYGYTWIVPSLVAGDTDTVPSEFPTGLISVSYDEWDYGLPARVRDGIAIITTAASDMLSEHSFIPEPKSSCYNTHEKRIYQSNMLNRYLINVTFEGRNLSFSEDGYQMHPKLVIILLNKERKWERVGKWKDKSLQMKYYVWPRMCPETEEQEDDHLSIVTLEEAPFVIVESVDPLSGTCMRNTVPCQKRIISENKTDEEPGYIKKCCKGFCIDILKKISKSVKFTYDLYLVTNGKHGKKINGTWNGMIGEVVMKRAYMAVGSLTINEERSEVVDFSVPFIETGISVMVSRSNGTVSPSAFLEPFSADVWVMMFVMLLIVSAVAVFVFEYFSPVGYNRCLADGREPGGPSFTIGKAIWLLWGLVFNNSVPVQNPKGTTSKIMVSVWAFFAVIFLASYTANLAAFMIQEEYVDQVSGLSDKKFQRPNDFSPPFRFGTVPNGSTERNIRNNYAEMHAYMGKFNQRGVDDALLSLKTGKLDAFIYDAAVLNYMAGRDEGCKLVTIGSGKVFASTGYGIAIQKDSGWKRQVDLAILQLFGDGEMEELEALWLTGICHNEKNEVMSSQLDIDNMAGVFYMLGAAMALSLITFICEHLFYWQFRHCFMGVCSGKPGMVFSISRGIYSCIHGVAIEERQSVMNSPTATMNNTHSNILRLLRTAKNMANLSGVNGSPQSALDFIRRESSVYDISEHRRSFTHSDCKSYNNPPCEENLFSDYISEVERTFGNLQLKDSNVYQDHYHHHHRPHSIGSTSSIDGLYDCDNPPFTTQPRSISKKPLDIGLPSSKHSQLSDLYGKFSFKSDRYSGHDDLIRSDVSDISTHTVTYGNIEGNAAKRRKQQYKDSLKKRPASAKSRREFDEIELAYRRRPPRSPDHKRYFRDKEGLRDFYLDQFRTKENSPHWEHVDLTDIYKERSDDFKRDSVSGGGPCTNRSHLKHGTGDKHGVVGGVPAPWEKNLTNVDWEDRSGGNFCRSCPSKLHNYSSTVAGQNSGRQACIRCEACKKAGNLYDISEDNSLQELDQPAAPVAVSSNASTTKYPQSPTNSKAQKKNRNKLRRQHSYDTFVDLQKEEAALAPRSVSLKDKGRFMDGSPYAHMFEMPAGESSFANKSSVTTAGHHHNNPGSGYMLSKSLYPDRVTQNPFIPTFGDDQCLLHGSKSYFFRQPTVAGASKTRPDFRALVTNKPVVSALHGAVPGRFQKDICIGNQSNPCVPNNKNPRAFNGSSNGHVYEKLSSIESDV
T1 sequence (Q00960 27-1482, other chains not shown): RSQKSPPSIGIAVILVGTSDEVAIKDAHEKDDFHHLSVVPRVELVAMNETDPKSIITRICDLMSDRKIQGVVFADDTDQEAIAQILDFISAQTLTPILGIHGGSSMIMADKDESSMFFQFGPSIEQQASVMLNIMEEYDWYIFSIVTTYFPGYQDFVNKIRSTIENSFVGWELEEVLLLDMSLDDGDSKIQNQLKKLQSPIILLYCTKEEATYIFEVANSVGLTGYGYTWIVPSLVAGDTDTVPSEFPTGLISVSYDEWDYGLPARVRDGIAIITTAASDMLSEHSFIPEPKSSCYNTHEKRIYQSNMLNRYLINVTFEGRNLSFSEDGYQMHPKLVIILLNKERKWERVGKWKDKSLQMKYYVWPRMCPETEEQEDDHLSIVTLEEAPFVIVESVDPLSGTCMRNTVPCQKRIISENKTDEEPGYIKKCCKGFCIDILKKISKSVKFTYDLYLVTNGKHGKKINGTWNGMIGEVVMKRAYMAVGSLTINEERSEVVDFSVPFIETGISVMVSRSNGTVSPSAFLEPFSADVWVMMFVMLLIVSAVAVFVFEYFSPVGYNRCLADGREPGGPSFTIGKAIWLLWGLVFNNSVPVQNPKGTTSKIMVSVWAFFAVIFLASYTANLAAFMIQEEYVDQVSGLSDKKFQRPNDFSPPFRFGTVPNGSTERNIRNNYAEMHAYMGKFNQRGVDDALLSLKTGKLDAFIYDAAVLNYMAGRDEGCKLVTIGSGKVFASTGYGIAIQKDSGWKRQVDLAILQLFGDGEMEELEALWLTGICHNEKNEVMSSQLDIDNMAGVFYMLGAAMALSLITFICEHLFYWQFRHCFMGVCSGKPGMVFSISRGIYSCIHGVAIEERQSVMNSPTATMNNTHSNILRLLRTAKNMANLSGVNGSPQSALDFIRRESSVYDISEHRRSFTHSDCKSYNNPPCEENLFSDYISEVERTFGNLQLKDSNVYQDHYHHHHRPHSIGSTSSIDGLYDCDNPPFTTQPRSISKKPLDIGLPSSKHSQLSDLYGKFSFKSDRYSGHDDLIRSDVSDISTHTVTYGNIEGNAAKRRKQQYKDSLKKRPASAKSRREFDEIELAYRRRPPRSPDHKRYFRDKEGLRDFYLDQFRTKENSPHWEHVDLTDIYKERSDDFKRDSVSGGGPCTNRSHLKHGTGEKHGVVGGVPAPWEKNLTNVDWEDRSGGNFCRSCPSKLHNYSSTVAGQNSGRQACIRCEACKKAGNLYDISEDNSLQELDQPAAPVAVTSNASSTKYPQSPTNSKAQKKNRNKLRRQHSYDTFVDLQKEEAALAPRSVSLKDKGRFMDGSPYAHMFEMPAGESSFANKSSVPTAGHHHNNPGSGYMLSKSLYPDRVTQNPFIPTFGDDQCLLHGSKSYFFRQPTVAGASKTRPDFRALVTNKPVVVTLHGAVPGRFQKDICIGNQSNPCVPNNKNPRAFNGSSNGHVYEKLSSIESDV
T2 sequence (Q12809 whole entry): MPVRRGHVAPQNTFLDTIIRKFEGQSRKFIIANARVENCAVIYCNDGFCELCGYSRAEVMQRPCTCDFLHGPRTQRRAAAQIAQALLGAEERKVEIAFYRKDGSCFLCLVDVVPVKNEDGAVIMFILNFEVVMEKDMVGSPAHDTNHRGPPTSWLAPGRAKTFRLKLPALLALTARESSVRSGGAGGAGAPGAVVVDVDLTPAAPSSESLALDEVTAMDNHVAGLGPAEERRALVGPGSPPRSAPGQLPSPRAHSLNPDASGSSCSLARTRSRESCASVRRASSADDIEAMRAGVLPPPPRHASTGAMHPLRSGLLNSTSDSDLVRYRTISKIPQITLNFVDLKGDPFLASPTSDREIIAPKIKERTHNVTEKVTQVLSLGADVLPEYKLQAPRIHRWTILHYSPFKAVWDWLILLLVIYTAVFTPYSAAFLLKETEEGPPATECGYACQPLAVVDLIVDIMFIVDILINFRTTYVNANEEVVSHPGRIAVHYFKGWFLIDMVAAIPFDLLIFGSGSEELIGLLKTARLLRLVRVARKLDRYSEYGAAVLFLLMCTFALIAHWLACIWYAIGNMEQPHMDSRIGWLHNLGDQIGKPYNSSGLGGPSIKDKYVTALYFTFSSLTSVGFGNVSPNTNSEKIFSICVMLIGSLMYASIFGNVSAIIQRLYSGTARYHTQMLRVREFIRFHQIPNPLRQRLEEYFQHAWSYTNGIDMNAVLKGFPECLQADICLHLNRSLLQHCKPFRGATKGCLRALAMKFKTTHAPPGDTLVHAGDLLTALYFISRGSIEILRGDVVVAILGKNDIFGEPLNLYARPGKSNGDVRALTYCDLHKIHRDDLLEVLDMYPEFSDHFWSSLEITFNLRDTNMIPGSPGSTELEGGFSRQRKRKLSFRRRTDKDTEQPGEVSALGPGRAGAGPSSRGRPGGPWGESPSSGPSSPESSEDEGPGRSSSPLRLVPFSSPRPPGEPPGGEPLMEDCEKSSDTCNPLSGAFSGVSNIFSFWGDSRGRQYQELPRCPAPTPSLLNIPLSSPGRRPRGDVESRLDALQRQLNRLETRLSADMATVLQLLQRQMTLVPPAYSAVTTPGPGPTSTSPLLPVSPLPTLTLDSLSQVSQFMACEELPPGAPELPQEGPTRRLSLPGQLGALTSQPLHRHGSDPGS

As for `Cc1ccc(N2CCC(N3CCN(c4ccc(O)cn4)CC3)C2=O)cc1F` (single isomer, unassigned) [Example 14 P1, 1-(3-fluoro-4-methylphenyl)-3-(4-(5-hydroxypyridin-2-yl)piperazin-1-yl)pyrrolidin-2-one], in series [1], the pKi is 8.40. Besides, the immobility time result in series [2] is recorded as “statistically significant decrease”. Moreover, the concentration at 15 min was 1340 nM in series [3] (brain homogenate, read-out: drug levels in the homogonized brain tissue) and 1020 nM in series [3] (plasma, read-out: Drug levels in the blood plasma). Also, the concentration at 21 min was determined as 410 nM in series [3] (brain, read-out: Drug levels in the brain) and 314 nM in series [3] (plasma, read-out: Drug levels in the plasma). In addition, the pIC50 in series [4] is 5.05. Further, the receptor occupancy at 3 mg/kg in series [5] (3 mg/Kg i.v. dose, CD-1 mice, forebrains harvested 15 minutes post-dosing) was 86%; in series [5] (3 mg/Kg i.v., mice of the forced swim test), 67%.

With `O=C1C(N2CCN(c3ncc(O)cn3)CC2)CCN1c1ccc(Cl)c(F)c1` (racemic) [Example 1, 1-(4-chloro-3-fluorophenyl)-3-(4-(5-hydroxypyrimidin-2-yl)piperazin-1-yl)pyrrolidin-2-one], the “occupancy of brain-resident NR2B-subtype receptors (in words)” value in series [5] (animals after dosing) was “occupies brain-resident NR2B-subtype receptors”.
